Experimental data taken from ChEMBL document CHEMBL1649508, “Emergence of quinolone-resistant Bordetella pertussis in Japan” (2009).
In brackets after ≈: the same amount, converted by molar mass. One block for each compound: values may come before it.

Key:
Assay type in all cases: functional
Bordetella pertussis [1] = test: Antibacterial activity against […] Bordetella pertussis BP122 by Etest method
Bordetella pertussis [2] = test: Antibacterial activity against […] Bordetella pertussis BP121 by Etest method
Bordetella pertussis [3] = test: Antibacterial activity against quinolone-susceptible Bordetella pertussis BP115 by Etest method
Bordetella pertussis [4] = test: Antibacterial activity against quinolone-susceptible Bordetella pertussis BP113 by Etest method
Bordetella pertussis [5] = test: Antibacterial activity against […] Bordetella pertussis BP58 by Etest method
Bordetella pertussis [6] = test: Antibacterial activity against quinolone-susceptible Bordetella pertussis BP109 by Etest method
Bordetella pertussis [7] = test: Antibacterial activity against quinolone-susceptible Bordetella pertussis BP106 by Etest method
Bordetella pertussis [8] = test: Antibacterial activity against […] Bordetella pertussis BP118 by Etest method
Bordetella pertussis [9] = test: Antibacterial activity against quinolone-susceptible Bordetella pertussis CCUG 30837 by Etest method
Bordetella pertussis [10] = test: Antibacterial activity against quinolone-susceptible Bordetella pertussis BP128 by Etest method
Bordetella pertussis [11] = test: Antibacterial activity against […] Bordetella pertussis BP99 by Etest method
Bordetella pertussis [12] = test: Antibacterial activity against quinolone-susceptible Bordetella pertussis BP112 by Etest method
Bordetella pertussis [13] = test: Antibacterial activity against […] Bordetella pertussis BP117 by Etest method
Bordetella pertussis [14] = test: Antibacterial activity against quinolone-susceptible Bordetella pertussis BP111 by Etest method
Bordetella pertussis [15] = test: Antibacterial activity against quinolone-susceptible Bordetella pertussis BP101 by Etest method
Bordetella pertussis [16] = test: Antibacterial activity against […] Bordetella pertussis BP122 by Etest method in presence of efflux pump inhibitor phenyl-arginine-beta-naphthylamide
Bordetella pertussis [17] = test: Antibacterial activity against […] Bordetella pertussis BP58 by Etest method in presence of efflux pump inhibitor phenyl-arginine-beta-naphthylamide
Bordetella pertussis [18] = test: Antibacterial activity against […] Bordetella pertussis BP121 by Etest method in presence of efflux pump inhibitor phenyl-arginine-beta-naphthylamide
Bordetella pertussis [19] = test: Antibacterial activity against […] Bordetella pertussis BP118 by Etest method in presence of efflux pump inhibitor phenyl-arginine-beta-naphthylamide
Bordetella pertussis [20] = test: Antibacterial activity against […] Bordetella pertussis BP117 by Etest method in presence of efflux pump inhibitor phenyl-arginine-beta-naphthylamide
Bordetella pertussis [21] = test: Antibacterial activity against quinolone-susceptible Bordetella pertussis CCUG 30837 by Etest method in presence of efflux pump inhibitor phenyl-arginine-beta-naphthylamide
Bordetella pertussis [22] = test: Antibacterial activity against […] Bordetella pertussis BP99 by Etest method in presence of efflux pump inhibitor phenyl-arginine-beta-naphthylamide
Bordetella pertussis [23] = test: Antibacterial activity against quinolone-susceptible Bordetella pertussis BP113 by Etest method in presence of efflux pump inhibitor phenyl-arginine-beta-naphthylamide

Structure (SMILES): O=C(N[C@H](CO)[C@H](O)c1ccc([N+](=O)[O-])cc1)C(Cl)Cl [CHLORAMPHENICOL]
MIC (Bordetella pertussis [1]): 0.25 µg/mL (≈ 0.774 µM)
MIC (Bordetella pertussis [2]): 0.25 µg/mL (≈ 0.774 µM)
MIC (Bordetella pertussis [3]): 0.5 µg/mL (≈ 1.55 µM)
MIC (Bordetella pertussis [4]): 0.5 µg/mL (≈ 1.55 µM)
MIC (Bordetella pertussis [5]): 0.5 µg/mL (≈ 1.55 µM)
MIC (Bordetella pertussis [6]): 0.125 µg/mL (≈ 0.387 µM)
MIC (Bordetella pertussis [7]): 0.25 µg/mL (≈ 0.774 µM)
MIC (Bordetella pertussis [8]): 0.5 µg/mL (≈ 1.55 µM)
MIC (Bordetella pertussis [9]): 0.5 µg/mL (≈ 1.55 µM)
MIC (Bordetella pertussis [10]): 0.25 µg/mL (≈ 0.774 µM)
MIC (Bordetella pertussis [11]): 0.25 µg/mL (≈ 0.774 µM)
MIC (Bordetella pertussis [12]): 0.25 µg/mL (≈ 0.774 µM)
MIC (Bordetella pertussis [13]): 0.25 µg/mL (≈ 0.774 µM)
MIC (Bordetella pertussis [14]): 0.25 µg/mL (≈ 0.774 µM)
MIC (Bordetella pertussis [15]): 0.25 µg/mL (≈ 0.774 µM)

Structure (SMILES): CCn1cc(C(=O)O)c(=O)c2ccc(C)nc21 [NALIDIXIC ACID]
MIC (Bordetella pertussis [16]): 32 µg/mL
MIC (Bordetella pertussis [1]): > 256 µg/mL
MIC (Bordetella pertussis [2]): > 256 µg/mL
MIC (Bordetella pertussis [3]): 1 µg/mL (≈ 4.31 µM)
MIC (Bordetella pertussis [17]): 64 µg/mL
MIC (Bordetella pertussis [18]): 32 µg/mL
MIC (Bordetella pertussis [4]): 2 µg/mL (≈ 8.61 µM)
MIC (Bordetella pertussis [5]): > 256 µg/mL
MIC (Bordetella pertussis [19]): 64 µg/mL
MIC (Bordetella pertussis [6]): 2 µg/mL (≈ 8.61 µM)
MIC (Bordetella pertussis [7]): 1 µg/mL (≈ 4.31 µM)
MIC (Bordetella pertussis [8]): > 256 µg/mL
MIC (Bordetella pertussis [20]): 64 µg/mL
MIC (Bordetella pertussis [9]): 2 µg/mL (≈ 8.61 µM)
MIC (Bordetella pertussis [21]): 0.25 µg/mL
MIC (Bordetella pertussis [10]): 1 µg/mL (≈ 4.31 µM)
MIC (Bordetella pertussis [11]): > 256 µg/mL
MIC (Bordetella pertussis [12]): 1 µg/mL (≈ 4.31 µM)
MIC (Bordetella pertussis [22]): 32 µg/mL
MIC (Bordetella pertussis [23]): 0.25 µg/mL
MIC (Bordetella pertussis [13]): > 256 µg/mL
MIC (Bordetella pertussis [14]): 2 µg/mL (≈ 8.61 µM)
MIC (Bordetella pertussis [15]): 2 µg/mL (≈ 8.61 µM)

Structure (SMILES): CCn1cc(C(=O)O)c(=O)c2cc(F)c(N3CCNCC3)cc21 [NORFLOXACIN]
MIC (Bordetella pertussis [1]): 1 µg/mL (≈ 3.13 µM)
MIC (Bordetella pertussis [2]): 1 µg/mL (≈ 3.13 µM)
MIC (Bordetella pertussis [3]): 0.064 µg/mL (≈ 0.2 µM)
MIC (Bordetella pertussis [4]): 0.064 µg/mL (≈ 0.2 µM)
MIC (Bordetella pertussis [5]): 1 µg/mL (≈ 3.13 µM)
MIC (Bordetella pertussis [6]): 0.064 µg/mL (≈ 0.2 µM)
MIC (Bordetella pertussis [7]): 0.064 µg/mL (≈ 0.2 µM)
MIC (Bordetella pertussis [8]): 0.5 µg/mL (≈ 1.57 µM)
MIC (Bordetella pertussis [9]): 0.125 µg/mL (≈ 0.391 µM)
MIC (Bordetella pertussis [10]): 0.064 µg/mL (≈ 0.2 µM)
MIC (Bordetella pertussis [11]): 1 µg/mL (≈ 3.13 µM)
MIC (Bordetella pertussis [12]): 0.064 µg/mL (≈ 0.2 µM)
MIC (Bordetella pertussis [13]): 0.5 µg/mL (≈ 1.57 µM)
MIC (Bordetella pertussis [14]): 0.064 µg/mL (≈ 0.2 µM)
MIC (Bordetella pertussis [15]): 0.032 µg/mL (≈ 0.1 µM)

Compounds with a lower MIC (Bordetella pertussis [1]), results first:

MIC (Bordetella pertussis [1]): 0.125 µg/mL (≈ 0.377 µM)
MIC (Bordetella pertussis [2]): 0.125 µg/mL (≈ 0.377 µM)
MIC (Bordetella pertussis [3]): 0.016 µg/mL (≈ 0.0483 µM)
MIC (Bordetella pertussis [4]): 0.008 µg/mL (≈ 0.0241 µM)
MIC (Bordetella pertussis [5]): 0.125 µg/mL (≈ 0.377 µM)
MIC (Bordetella pertussis [6]): 0.008 µg/mL (≈ 0.0241 µM)
MIC (Bordetella pertussis [7]): 0.008 µg/mL (≈ 0.0241 µM)
MIC (Bordetella pertussis [8]): 0.125 µg/mL (≈ 0.377 µM)
MIC (Bordetella pertussis [9]): 0.032 µg/mL (≈ 0.0966 µM)
MIC (Bordetella pertussis [10]): 0.016 µg/mL (≈ 0.0483 µM)
MIC (Bordetella pertussis [11]): 0.125 µg/mL (≈ 0.377 µM)
MIC (Bordetella pertussis [12]): 0.008 µg/mL (≈ 0.0241 µM)
MIC (Bordetella pertussis [13]): 0.125 µg/mL (≈ 0.377 µM)
MIC (Bordetella pertussis [14]): 0.016 µg/mL (≈ 0.0483 µM)
MIC (Bordetella pertussis [15]): 0.016 µg/mL (≈ 0.0483 µM)
Structure (SMILES): O=C(O)c1cn(C2CC2)c2cc(N3CCNCC3)c(F)cc2c1=O [CIPROFLOXACIN]

MIC (Bordetella pertussis [1]): 0.032 µg/mL (≈ 0.0852 µM)
MIC (Bordetella pertussis [2]): 0.032 µg/mL (≈ 0.0852 µM)
MIC (Bordetella pertussis [3]): 0.008 µg/mL (≈ 0.0213 µM)
MIC (Bordetella pertussis [4]): 0.004 µg/mL (≈ 0.0107 µM)
MIC (Bordetella pertussis [5]): 0.032 µg/mL (≈ 0.0852 µM)
MIC (Bordetella pertussis [6]): 0.004 µg/mL (≈ 0.0107 µM)
MIC (Bordetella pertussis [7]): 0.004 µg/mL (≈ 0.0107 µM)
MIC (Bordetella pertussis [8]): 0.032 µg/mL (≈ 0.0852 µM)
MIC (Bordetella pertussis [9]): 0.008 µg/mL (≈ 0.0213 µM)
MIC (Bordetella pertussis [10]): 0.008 µg/mL (≈ 0.0213 µM)
MIC (Bordetella pertussis [11]): 0.032 µg/mL (≈ 0.0852 µM)
MIC (Bordetella pertussis [12]): 0.004 µg/mL (≈ 0.0107 µM)
MIC (Bordetella pertussis [13]): 0.032 µg/mL (≈ 0.0852 µM)
MIC (Bordetella pertussis [14]): 0.008 µg/mL (≈ 0.0213 µM)
MIC (Bordetella pertussis [15]): 0.008 µg/mL (≈ 0.0213 µM)
Structure (SMILES): COc1c(N2CCNC(C)C2)c(F)cc2c(=O)c(C(=O)O)cn(C3CC3)c12 (stereo not drawn) [GATIFLOXACIN]

MIC (Bordetella pertussis [1]): 0.064 µg/mL
MIC (Bordetella pertussis [2]): 0.064 µg/mL
MIC (Bordetella pertussis [3]): 0.008 µg/mL
MIC (Bordetella pertussis [4]): 0.008 µg/mL
MIC (Bordetella pertussis [5]): 0.064 µg/mL
MIC (Bordetella pertussis [6]): 0.004 µg/mL
MIC (Bordetella pertussis [7]): 0.008 µg/mL
MIC (Bordetella pertussis [8]): 0.064 µg/mL
MIC (Bordetella pertussis [9]): 0.016 µg/mL
MIC (Bordetella pertussis [10]): 0.016 µg/mL
MIC (Bordetella pertussis [11]): 0.064 µg/mL
MIC (Bordetella pertussis [12]): 0.008 µg/mL
MIC (Bordetella pertussis [13]): 0.064 µg/mL
MIC (Bordetella pertussis [14]): 0.008 µg/mL
MIC (Bordetella pertussis [15]): 0.016 µg/mL
Structure (SMILES): C[C@H]1COc2c(N3CCN(C)CC3)c(F)cc3c(=O)c(C(=O)O)cn1c23.C[C@H]1COc2c(N3CCN(C)CC3)c(F)cc3c(=O)c(C(=O)O)cn1c23.O [LEVOFLOXACIN]

MIC (Bordetella pertussis [1]): 0.064 µg/mL (≈ 0.163 µM)
MIC (Bordetella pertussis [2]): 0.064 µg/mL (≈ 0.163 µM)
MIC (Bordetella pertussis [3]): 0.004 µg/mL (≈ 0.0102 µM)
MIC (Bordetella pertussis [4]): 0.004 µg/mL (≈ 0.0102 µM)
MIC (Bordetella pertussis [5]): 0.125 µg/mL (≈ 0.319 µM)
MIC (Bordetella pertussis [6]): 0.004 µg/mL (≈ 0.0102 µM)
MIC (Bordetella pertussis [7]): 0.004 µg/mL (≈ 0.0102 µM)
MIC (Bordetella pertussis [8]): 0.064 µg/mL (≈ 0.163 µM)
MIC (Bordetella pertussis [9]): 0.016 µg/mL (≈ 0.0408 µM)
MIC (Bordetella pertussis [10]): 0.008 µg/mL (≈ 0.0204 µM)
MIC (Bordetella pertussis [11]): 0.032 µg/mL (≈ 0.0815 µM)
MIC (Bordetella pertussis [12]): 0.004 µg/mL (≈ 0.0102 µM)
MIC (Bordetella pertussis [13]): 0.064 µg/mL (≈ 0.163 µM)
MIC (Bordetella pertussis [14]): 0.008 µg/mL (≈ 0.0204 µM)
MIC (Bordetella pertussis [15]): 0.008 µg/mL (≈ 0.0204 µM)
Structure (SMILES): C[C@@H]1CN(c2c(F)c(N)c3c(=O)c(C(=O)O)cn(C4CC4)c3c2F)C[C@H](C)N1 [SPARFLOXACIN]
